{"source": "paper PMC6934184", "about": "“Selective DNA-PKcs inhibition extends the therapeutic index of localized radiotherapy and chemotherapy” (The Journal of Clinical Investigation, 2019)", "biological_target": "T1, STK25 (YSK1) (Homo sapiens, UniProt O00506)", "T1 construct": "purchased Thermo Fisher Scientific (Life Technologies) SelectScreen", "T1 sequence (O00506 whole entry)": "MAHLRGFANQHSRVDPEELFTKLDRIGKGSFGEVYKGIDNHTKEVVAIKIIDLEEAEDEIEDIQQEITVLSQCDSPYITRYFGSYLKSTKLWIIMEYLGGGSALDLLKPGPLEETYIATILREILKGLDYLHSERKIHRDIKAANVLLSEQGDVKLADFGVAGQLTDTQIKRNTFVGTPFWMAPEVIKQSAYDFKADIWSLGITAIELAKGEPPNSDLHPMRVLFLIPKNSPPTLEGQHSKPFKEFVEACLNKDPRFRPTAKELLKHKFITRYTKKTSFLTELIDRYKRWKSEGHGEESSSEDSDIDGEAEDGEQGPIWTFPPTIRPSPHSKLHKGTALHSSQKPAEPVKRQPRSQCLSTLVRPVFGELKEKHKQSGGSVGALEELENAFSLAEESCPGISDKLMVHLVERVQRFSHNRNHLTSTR", "experiment": "SelectScreen Z'LYTE", "type": "biochemical", "method_in_brief": "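Percent values come from Thermo SelectScreen profiling of NU5455, combining activity and binding assays. CSF1R was run in Z'LYTE format at Km app ATP, and CAMK1 in Adapta format with ATP listed at 10.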", "data": [{"smiles": "CN(C(=O)CN1CCOCC1)c1ccc2sc3c(-c4cccc5c(=O)cc(N6CC7CCC(C6)O7)oc45)cccc3c2c1", "note": "[NU5455]", "values": [{"measurement": "inhibition at 1 µM", "value": -11.4, "unit": "%"}]}]}
